Results: patent US10934255B2, “Nrf and HIF activators/HDAC inhibitors and therapeutic methods using the same” (THE BOARD OF TRUSTEES OF THE UNIVERSITY OF ILLINOIS, priority 2017, dated 2021)

Tests used:
Human HDAC6 = molecular target: T1, Human HDAC6 (Homo sapiens, UniProt Q9UBN7); assay: HDAC6 inhibition assay (fluorogenic p53 peptide substrate); format: biochemical; conditions: Table 1; performed by Reaction Biology Corporation; read-out: HDAC isoform IC50 (nM) 6
T1 construct: Full length with N-terminal GST tag, MW=159 kDa; GST (N); host or cells: Sf9 insect cells (baculovirus)
T1 sequence (Q9UBN7 1-1215): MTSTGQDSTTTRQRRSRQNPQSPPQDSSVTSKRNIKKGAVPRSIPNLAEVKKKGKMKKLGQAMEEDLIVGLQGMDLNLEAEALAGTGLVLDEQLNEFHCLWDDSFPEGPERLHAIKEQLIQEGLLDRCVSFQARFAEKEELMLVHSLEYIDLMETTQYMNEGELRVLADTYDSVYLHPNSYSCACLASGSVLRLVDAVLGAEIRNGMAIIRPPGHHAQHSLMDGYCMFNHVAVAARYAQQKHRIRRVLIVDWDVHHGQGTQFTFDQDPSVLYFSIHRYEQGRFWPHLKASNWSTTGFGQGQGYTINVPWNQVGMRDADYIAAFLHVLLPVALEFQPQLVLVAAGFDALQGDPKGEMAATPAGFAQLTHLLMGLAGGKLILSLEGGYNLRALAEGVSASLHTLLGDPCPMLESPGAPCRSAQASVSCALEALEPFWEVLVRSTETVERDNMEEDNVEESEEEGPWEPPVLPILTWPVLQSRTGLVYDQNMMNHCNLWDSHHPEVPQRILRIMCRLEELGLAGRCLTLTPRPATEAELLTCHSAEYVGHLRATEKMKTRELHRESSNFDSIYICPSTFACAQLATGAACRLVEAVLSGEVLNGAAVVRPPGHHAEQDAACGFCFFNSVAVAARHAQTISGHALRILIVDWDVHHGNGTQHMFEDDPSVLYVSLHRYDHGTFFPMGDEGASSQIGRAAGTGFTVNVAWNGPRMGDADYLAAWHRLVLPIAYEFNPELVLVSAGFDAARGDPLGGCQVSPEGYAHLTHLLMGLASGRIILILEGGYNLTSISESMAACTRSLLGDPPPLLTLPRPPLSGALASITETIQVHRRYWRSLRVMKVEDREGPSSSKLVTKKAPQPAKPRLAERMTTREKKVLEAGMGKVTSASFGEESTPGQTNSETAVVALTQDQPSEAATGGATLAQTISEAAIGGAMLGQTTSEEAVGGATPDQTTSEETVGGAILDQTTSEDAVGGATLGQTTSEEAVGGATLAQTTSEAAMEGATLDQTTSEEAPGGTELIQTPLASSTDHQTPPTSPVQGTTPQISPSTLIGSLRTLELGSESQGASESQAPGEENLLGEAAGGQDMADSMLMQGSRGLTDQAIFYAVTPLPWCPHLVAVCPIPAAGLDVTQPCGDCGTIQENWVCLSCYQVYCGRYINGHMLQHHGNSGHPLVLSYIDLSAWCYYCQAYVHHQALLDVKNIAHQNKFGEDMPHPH
Description: (§1) The HDAC1, 2, 4, 5, 6, 7, 8, 9, 10, and 11 assays used isolated recombinant human protein; HDAC3/NcoR2 complex was used for the HDAC3 assay. Substrate for HDAC1, 2, 3, 6, 10, and 11 assays is a fluorogenic peptide from p53 residues 379-382 (RHKKAc); substrate for HDAC8 is fluorogenic diacyl peptide based on residues 379-382 of p53 (RHKAcKAc). Acetyl-Lys(trifluoroacetyl)-AMC substrate was used for HDAC4, 5, 7, and 9 assays. Compounds were dissolved in DMSO and tested in 10-dose IC50 mode with 3-fold serial dilution starting at 30 μM. Control Compound Trichostatin A (TSA) was tested in a 10-dose IC50 with 3-fold serial dilution starting at 5 μM. IC50 values were extracted by curve-fitting the dose/response slopes. Assays were performed in duplicate and IC50 values are an average of data from both experiments.
Human HDAC6 (GenBank Accession No. BC069243): Full length with N-terminal GST tag, MW=159 kDa, expressed by baculovirus expression system in Sf9 cells. Enzyme is in 50 mM Tris-HCl, pH 8.0, 138 mM NaCl, 20 mM glutathione, and 10% glycerol, and stable for >6 months at −80° C. Purity is >90% by SDS-PAGE. Specific Activity is 50 U/μg, where one U=1 pmol/min under assay condition of 25 mM Tris/Cl, pH8.0, 137 mM NaCl, 2.7 mM KCl, 1 mM MgCl2, and 0.1 mg/ml BSA, 30 μM HDAC substrate, and 5 ng/μl HDAC6, incubation for 60 min at 30° C.
(§2) Substrate for HDAC1 and HDAC6: Acetylated peptide substrate for HDAC, based on residues 379-382 of p53 (Arg-His-Lys-Lys(Ac)), a site of regulatory acetylation by the p300 and CBP acetyltransferases (lysines 381, 382)1-6, is the best for HDAC from among a panel of substrates patterned on p53, histone H3 and histone H4 acetylation sites7.
(§3) Reaction Buffer: 50 mM Tris-HCl, pH 8.0, 137 mM NaCl, 2.7 mM KCl, 1 mM MgCl2, 1 mg/ml BSA.
HDAC6: 12.6 nM HDAC6 and 50 μM HDAC substrate are in the reaction buffer and 1% DMSO final. Incubate for 2 hours at 30° C.
(§4) All IC50 values are automatically calculated using the GraphPad Prism version 5 and Equation of Sigmoidal dose-response (variable slope): Y=Bottom+(Top−Bottom)/(1+10^((Log EC50−X)*HillSlope)), where X is the logarithm of concentration, Y is the response, Y starts at Bottom and goes to Top with a sigmoid shape. In most cases, “Bottom” is set 0, and “Top” is set “less than 120%”. This is identical to the “four parameter logistic equation”. IC50 curves also are drawn using the GraphPad Prism, and IC50 values and Hill slopes are provided.
(§5) HDAC Activity Assays: HDAC assay is performed using fluorescently-labeled acetylated substrate, which comprises an acetylated lysine side chain. After incubation with HDAC, deacetylation of the substrate sensitizes the substrate such that, in a second step, treatment with the detection enzyme produces a fluorophore. HDACs 1 and 6 were expressed as full length fusion proteins. Purified proteins were incubated with 50 μM fluorescently-labeled acetylated peptide substrate and test compound for 2 hours at RT in HDAC assay buffer containing 50 mM Tris-HCl (pH 8.0), 137 mM NaCl, 2.7 mM KCl, 1 mM MgCl2, 1% DMSO, and 1% BSA.
(§6) Reactions were terminated by the addition of the Developer after 2 hours, and the development of fluorescence signal, which was relative to the amount of deacetylated peptide, was monitored by time-course measurement of EnVision (PerkinElmer). The HDAC activity was estimated from the slope of time-course measurement of the fluorescence intensity. The slope of no-enzyme control (substrate alone) was served as background, and % Enzyme activity was calculated using background-subtracted slope of no inhibitor control (DMSO) as 100% activity.

HIF-1α = assay: HIF1 activation, ODD reporter assay; format: cell-based; conditions: measured at 10 μM
Description: (§7) The present compounds were evaluated for an ability to activate Nrf2 and HIF-1α. Table 1 summarizes Nrf2 activation data obtained in Neh2-luc reporter assay; and HIF1 activation measured in ODD reporter assay.

Nrf2 = Nrf2 activation, Neh2-luc reporter assay; format: cell-based; conditions: measured at 10 μM
Description: as §7

Human HDAC1 = molecular target: T2, Human HDAC1 (Homo sapiens, UniProt Q13547); assay: HDAC1 inhibition assay (fluorogenic p53 peptide substrate); format: biochemical; conditions: Table 1; performed by Reaction Biology Corporation; read-out: HDAC isoform IC50 (nM) 1
T2 construct: Full length with C-terminal GST tag, MW=79.9 kDa; GST (C); host or cells: Sf9 insect cells (baculovirus)
Description: as §1
Human HDAC1 (GenBank Accession No. NM_004964): Full length with C-terminal GST tag, MW=79.9 kDa, expressed by baculovirus expression system in Sf9 cells. Enzyme is in 50 mM Tris-HCl, pH 8.0, 138 mM NaCl, 20 mM glutathione, and 10% glycerol, and stable for >6 months at −80° C. Purity is >10% by SDS-PAGE. Specific Activity is 20 U/μg, where one U=1 pmol/min under assay condition of 25 mM Tris/Cl, pH8.0, 137 mM NaCl, 2.7 mM KCl, 1 mM MgCl2, 0.1 mg/ml BSA, 100 μM HDAC substrate, and 13.2 ng/μl HDAC1, incubation for 30 min at 30° C.
as §2, §3
HDAC1: 75 nM HDAC1 and 50 μM HDAC substrate are in the reaction buffer and 1% DMSO final. Incubate for 2 hours at 30° C.
as §4, §5, §6

T2 sequence (Q13547 whole entry, canonical isoform): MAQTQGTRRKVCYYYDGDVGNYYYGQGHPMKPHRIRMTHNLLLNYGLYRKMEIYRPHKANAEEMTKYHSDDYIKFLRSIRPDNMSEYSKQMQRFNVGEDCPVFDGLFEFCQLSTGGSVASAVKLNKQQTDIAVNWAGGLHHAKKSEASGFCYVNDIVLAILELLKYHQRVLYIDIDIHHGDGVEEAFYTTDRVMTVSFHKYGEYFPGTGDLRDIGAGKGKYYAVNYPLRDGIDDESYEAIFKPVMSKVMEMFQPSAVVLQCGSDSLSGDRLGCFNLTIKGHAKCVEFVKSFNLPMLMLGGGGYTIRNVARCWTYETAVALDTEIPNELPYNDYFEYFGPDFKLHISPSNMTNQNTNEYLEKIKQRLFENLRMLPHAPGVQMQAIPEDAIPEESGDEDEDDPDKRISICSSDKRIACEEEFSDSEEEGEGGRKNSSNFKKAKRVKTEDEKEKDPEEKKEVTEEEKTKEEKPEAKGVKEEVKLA

SMILES	IC50 (Human HDAC6) [nM]	IC50 (Human HDAC1) [nM]	fold induction at 10 µM (HIF-1α)	fold induction at 10 µM (Nrf2)	HIF-1α fold activation (HIF-1α) [fold]	Nrf2 fold activation (Nrf2) [fold]
O=C(NO)c1ccc(CN2CCc3cc(Cl)ccc32)cc1F [II-ING-51, 4-((5-Chloroindolin-1-yl)methyl)-2-fluoro-N-hydroxybenzamide]	40.2		7.2	1.6		
Cn1c(NCc2ccc(C(=O)NO)cc2)nc2cc(Cl)ccc21 [II-ING-85, 4-(((5-chloro-1-methyl-1H-benzo[d]imidazol-2-yl)amino)methyl)-N-hydroxybenzamide]	2.7	1500	1.1	1.3		
O=C(NO)c1ccc(CNc2nc3ccccc3n2-c2ccccc2)cc1 [II-ING-87, N-hydroxy-4-(((1-phenyl-1H-benzo[d]imidazol-2-yl)amino)methyl)benzamide]	13	3230	1	1.2		
C[N+]1(C)CCC2(CC1)C(=O)N(Cc1ccc(C(=O)NO)cc1)c1ccccc12 [II-ING-109, 1-(4-(Hydroxycarbamoyl)benzyl)-1′,1′-dimethyl-2-oxospiro[indoline-3,4′-piperidin]-1′-ium]	18	19700			1.0	1.5
C[N+]1(C)CCC2(CC1)C(=O)N(Cc1ccc(C(=O)NO)cc1)c1ccccc12 [II-ING-118]	5.8	7880	1.3	2		

Further lines, with some results ahead:

IC50 (Human HDAC6) [nM]	IC50 (Human HDAC1) [nM]	SMILES	fold induction at 10 µM (HIF-1α)	fold induction at 10 µM (Nrf2)	HIF-1α fold activation (HIF-1α) [fold]	Nrf2 fold activation (Nrf2) [fold]
4.6	7820	O=C(NO)c1ccc(CN2CCc3cc(F)c(Cl)cc32)cc1 [II-ING-56, 4-((6-Chloro-5-fluoroindolin-1-yl)methyl)-N-hydroxybenzamide]	7.8	5.5		
1.4	1970	O=C(NO)c1ccc(CN2CCc3cc([N+](=O)[O-])ccc32)cc1 [II-ING-57, N-Hydroxy-4-((5-nitroindolin-1-yl)methyl)benzamide]	3.9	6.6		
25.2	1850	O=C(NO)c1ccc(CN2CCc3ccc(OCc4ccccc4)cc32)cc1 [II-ING-61, 4-((6-(Benzyloxy)indolin-1-yl)methyl)-N-hydroxybenzamide]	7	2.2		
24.5	18700	CC1(C)CN(Cc2ccc(C(=O)NO)cc2)c2ccccc21 [II-ING-65, 4-((3,3-Dimethylindolin-1-yl)methyl)-N-hydroxybenzamide]	2.8	1.8		
8.2	4700	O=C(NO)c1ccc(CN2CC3(CC3)c3cc(F)ccc32)cc1 [II-ING-68, 4-((5′-Fluorospiro[cyclopropane-1,3′-indolin]-1′-yl)methyl)-N-hydroxybenzamide]	5.8	6.2		
5560	≥ 30000	O=C(NO)c1cccc(CN2C(=O)C(F)(F)c3ccccc32)c1 [II-ING-100, 3-((3,3-Difluoro-2-oxoindolin-1-yl)methyl)-N-hydroxybenzamide]	1	1.5		
5.1	7880	CC1(C)C(=O)N(Cc2ccc(C(=O)NO)cc2)c2ccccc21 [II-ING-101, 4-((3,3-Dimethyl-2-oxoindolin-1-yl)methyl)-N-hydroxybenzamide]	1	3.4		
